Measured values published in US20220144826A1, “Heteroaromatic and Heterobicyclic Aromatic Derivatives for the Treatment of Ferroptosis-Related Disorders” (COLLABORATIVE MEDICINAL DEVELOPMENT, LLC, priority 2019, published 2022).

Test system: N27 rat dopaminergic neural cells
Assay: MTT assay in N27 rat dopaminergic neural cells: inhibition of RSL3-induced cell death (ferroptosis)
Type: cell-based
Conditions: Rattus norvegicus, N27, 24 h, ferroptosis induced by 0.5 μM RSL3, 24 hours, viability by MTT
Protocol: MTT Assay in N27 Rat Dopaminergic Neural Cells
N27 rat dopaminergic neural cells (Millipore, SCC048) were cultured in RPMI-1640 media (Wisent, 350-000) supplemented with 1×GlutaMAX (Gibco, 35050-061), 10% FBS (embryonic stem cell qualified; Wisent, 920-040), and 1× Penicillin-Streptomycin (Wisent, 450-201). Cells were grown in humidified tissue culture incubator at 37° C. with 5% CO2, for up to 10 passages. To evaluate the ability of test compounds to inhibit RSL3-induced cell death, N27 cells were seeded in clear 96-well tissue culture plates (Sarstedt, 83.3924) at a density of 15,000 cells/well. On the next day, the medium was changed to fresh complete RPMI-1640. Eight-point dilution series of test compounds were added to the cells. Then, ferroptosis was induced by addition of 0.5 μM RSL3 (vehicle-treated cells served as control). Ferrostatin-1 (Fer-1) was included in each assay as control inhibitor of ferroptosis. Plates were incubated for 24 hours at 37° C. in a tissue culture incubator, then cell viability was determined by MTT assay. Briefly, Thiazolyl Blue Tetrazolium Bromide [3-(4,5-dimethylthiazol-2-yl)-2,5-diphenyltetrazolium bromide or “MTT” ] (Sigma) stock solution (5 mg/mL in PBS, sterilized by filtration) was diluted 1:1 with complete growth medium, and added on the cells to a final concentration of 0.5 mg/mL. Cells were incubated with MTT for 4 hours at 37° C., protected from light, in a humidified, 5% CO2 atmosphere. Medium was then completely removed from the wells by gentle aspiration and converted MTT formazan crystals were dissolved in 150 μL of DMSO. Absorbance of converted dye was measured at 595 nm with background subtraction at 690 nm using the BioTek Cytation5 Microplate Reader. Blank reading (absorbance from wells containing media and vehicle only, no cells) was removed from all sample wells. Viability was calculated as a percentage of control cells (vehicle-treated cells were set as 100% viability). Dose-response curves were drawn and IC50 values were calculated using GraphPad Prism software, version 7.

| SMILES | IC50 |
| --- | --- |
| Cc1ccc(-c2nc3c(c(NC4CCCC4)n2)NCCC3)cc1 [Compound A-32, N-cyclopentyl-2-(p-tolyl)-5,6,7,8-tetrahydropyrido[3,2-d]pyrimidin-4-amine] | 6 nM |
| c1cc(-c2ccc(NC3COC3)c(NC3CCCC3)n2)ccn1 [Compound H-77, N^2-cyclopentyl-N^3-(oxetan-3-yl)-6-(4-pyridyl)pyridine-2,3-diamine] | 13 nM |
| CCC(C)Nc1ccc(-c2ccc(C)cc2)nc1NC(C)(C)C [Compound L-02, N^2-tert-butyl-6-(p-tolyl)-N^3-sec-butyl-pyridine-2,3-diamine] | 5 nM |
| CC#Cc1nc2c(c(NC3CCCC3)n1)NCCC2 [Compound A-12, N-cyclopentyl-2-prop-1-ynyl-5,6,7,8-tetrahydropyrido[3,2-d]pyrimidin-4-amine] | 109 nM |
| CCCCCc1cc2c(c(Nc3ccccn3)c1)NCCC2 [Compound B-308] | 18 nM |
| CCOC(=O)c1ccc(NC2CCCCC2)c(N)n1 [Compound B-626, FER-1] | 108 nM |
| CCCCC(=O)c1cc2c(c(-c3ccncc3)c1)NCCC2 [Compound Q-950, 1-[8-(4-pyridyl)-1,2,3,4-tetrahydroquinolin-6-yl]pentan-1-one] | > 3000 nM |
| CC1(Nc2nc(-c3ccc(F)cc3)ccc2NC2CCOCC2)CCOC1 (stereo not shown) [Compound N-53, 6-(4-fluorophenyl)-N^2-(3-methyltetrahydrofuran-3-yl)-N^3-tetrahydropyran-4-yl-pyridine-2,3-diamine] | 1 nM |
| CCC(C)Nc1ccc(-c2ccc(C)cc2)nc1NC1CCCC1 (stereo not shown) [Compound H-61, N^2-cyclopentyl-6-(p-tolyl)-N^3-sec-butyl-pyridine-2,3-diamine] | 7 nM |
| CCCCC(O)c1nc2c(c(NC3CCCC3)n1)NCCC2 (stereo not shown) [Compound C-79, 1-[4-(cyclopentylamino)-5,6,7,8-tetrahydropyrido[3,2-d]pyrimidin-2-yl]pentan-1-ol] | 112 nM |
| OC(c1ccc(F)cc1)c1nc2c(c(NC3CCCC3)n1)NCCC2 (stereo not shown) [Compound A-11, [4-(cyclopentylamino)-5,6,7,8-tetrahydropyrido[3,2-d]pyrimidin-2-yl]-(4-fluorophenyl)methanol] | 36 nM |
| COc1ccc(-c2ccc(NC3COC3)c(NC3CCCC3)n2)cc1 [Compound H-87, N^2-cyclopentyl-6-(4-methoxyphenyl)-N^3-(oxetan-3-yl)pyridine-2,3-diamine] | 3 nM |
| c1ccc(-c2cn(-c3nc4c(c(NC5CCCC5)n3)NCCC4)nn2)cc1 [Compound A-31, N-cyclopentyl-2-(4-phenyltriazol-1-yl)-5,6,7,8-tetrahydropyrido[3,2-d]pyrimidin-4-amine] | 21 nM |
| CCC/C=C/c1nc(NC2CCCC2)c2c(n1)SCC(=O)N2 [Compound B-600, 4-(cyclopentylamino)-2-[(1E)-pent-1-en-1-yl]-5H,6H,7H-pyrimido[4,5-b][1,4]thiazin-6-one] | ≥ 3000 nM |
| CCCCC(=O)c1cc2c(c(OC3CCCC3)c1)NCCC2 [Compound Q-980, 1-[8-(cyclopentoxy)-1,2,3,4-tetrahydroquinolin-6-yl]pentan-1-one] | > 3000 nM |
| CN(C)C(=O)c1ccc(-c2ccc(NC3CCC3)c(NC3(C)CCOC3)n2)cc1 (stereo not shown) [Compound P-53, 4-[5-(cyclobutylamino)-6-[(3-methyltetrahydrofuran-3-yl)amino]-2-pyridyl]-N,N-dimethyl-benzamide] | 24 nM |
| CCC(C)Nc1cnc(-c2ccc(C)cc2)nc1NC1CCCC1 (stereo not shown) [Compound F-69, N^4-cyclopentyl-2-(p-tolyl)-N^5-sec-butyl-pyrimidine-4,5-diamine] | 28 nM |
| CCCCC(=O)c1cc2c(c(N(S(=O)(=O)CC(C)C)S(=O)(=O)CC(C)C)c1)NCCC2 [Compound B-248, N-isobutylsulfonyl-2-methyl-N-(6-pentanoyl-1,2,3,4-tetrahydroquinolin-8-yl)propane-1-sulfonamide] | > 3000 nM |
| CCCCC(=O)c1cc2c3c(c1)nc(C(F)(F)F)n3CCC2 [Compound B-099, 1-[2-(trifluoromethyl)-1,3-diazatricyclo[6.3.1.04,12]dodeca-2,4 (12),5,7-tetraen-6-yl]pentan-1-one] | > 3000 nM |
| CCOC(=O)c1cc2c(c(C(=O)C(F)(F)F)c1)NC(C)(C)C=C2 [Compound B-101, Ethyl 2,2-dimethyl-8-(2,2,2-trifluoroacetyl)-1,2-dihydroquinoline-6-carboxylate] | > 3000 nM |
| CCCCC(=O)c1cc(N)c2c(c1)CCCN2S(=O)(=O)CC(C)C [Compound B-060] | 4020 nM |
| CCCC(=O)c1ccc(NC2CC(F)(F)C2)c(NC2CC(F)(F)C2)n1 [Compound P-47, 1-[5,6-bis[(3,3-difluorocyclobutyl)amino]-2-pyridyl]butan-1-one] | 201 nM |
| CCCCC(=O)c1nc(NC2CCCC2)c2c(n1)OCCN2 [Compound B-763, 1-[4-(cyclopentylamino)-5H,6H,7H-pyrimido[4,5-b][1,4]oxazin-2-yl]pentan-1-one] | 391 nM |
| CCCCC(O)c1nc2c(c(NC(C)(C)C)n1)NCCC2 (stereo not shown) [Compound A-00, 1-[4-(tert-butylamino)-5,6,7,8-tetrahydropyrido[3,2-d]pyrimidin-2-yl]pentan-1-ol] | 139 nM |
| CCCCC(=O)c1cc(N)c2c(c1)CCCN2 [Compound B-059, 1-(8-amino-1,2,3,4-tetrahydroquinolin-6-yl)pentan-1-one] | 149 nM |
| CCCCC(=O)c1ccc2c(c1)C=CC(C)(C)N2 [Compound B-100, 1-(2,2-dimethyl-1,2-dihydroquinolin-6-yl)pentan-1-one] | 7440 nM |
| Cc1ccc(-c2nc(NC3CCCC3)c3c(n2)C(=O)N(C)C(C)(C)N3)cc1 [Compound K-36, 8-(cyclopentylamino)-2,2,3-trimethyl-6-(p-tolyl)-1H-pyrimido[5,4-d]pyrimidin-4-one] | 525 nM |
| CCCCC(=O)c1cc2c(c(NC3CCCC3)n1)NCCC2 [Compound B-647, 1-[8-(cyclopentylamino)-1,2,3,4-tetrahydro-1,7-naphthyridin-6-yl]pentan-1-one] | 8 nM |
| CC(C)=Cc1nc(C)nc(NC2CCCC2)c1N [Compound F-99, N^4-cyclopentyl-2-methyl-6-(2-methylprop-1-enyl)pyrimidine-4,5-diamine] | > 625 nM |
| CCC(C)Nc1ccc(-c2ccccn2)nc1NC1(C)CCOC1 [Compound L-22, N^2-(3-methyltetrahydrofuran-3-yl)-6-(2-pyridyl)-N^3-sec-butyl-pyridine-2,3-diamine] | 14 nM |

Same assay, conditions: ferroptosis induced by 0.5 μM RSL3, 24 hours, viability by MTT

| SMILES | IC50 |
| --- | --- |
| CCCCCc1nc2c(c(NC3CCCC3)n1)NCCC2 [Compound A-63, N-cyclopentyl-2-pentyl-5,6,7,8-tetrahydropyrido[3,2-d]pyrimidin-4-amine] | 313 nM |
